Measured values published in patent US20240343813A1, “COMBINATION THERAPY AND RELATED METHODS” (Bicara Therapeutics Inc., priority 2023, published 2024).

Assays:
[1] = system: TGFβ-induced hKRAS G12C resistant lung cancer cell line (H1792); assay: CellTiter Glo cytotoxicity in TGFβ-induced hKRAS G12C inhibitor resistant cells; format: cell-based; details: long-term TGFβ treated H1792 cells compared to control H1792 cells (wild type); 72 hours
Protocol: Reports have shown that hKRAS G12C inhibitor efficacy is higher in cancer cells with a low epithelial-mesenchymal transition (EMT) signature compared to a high EMT signature. hTGFβ is known to induce EMT through canonical and non-canonical pathways in various cancers.
Briefly, hKRAS G12C inhibitor resistance was induced in H1792 cells by treating the cells with hTGFβ (4 ng/ml) for at least two weeks. […] Cytotoxicity was evaluated using the CellTiter Glo® Luminescent Cell Viability Assay according to manufacturer's instructions (Promega) (as described in Example 6.3).

H358 lung cancer cells = assay: Long-term hKRAS G12C inhibitor treatment-induced resistance; format: cell-based; details: H358 treated with increasing concentrations of AMG510 for about one month; vs control (wild type) H358
Protocol: The effect of long duration treatment with a hKRAS G12C inhibitor on acquired hKRAS G12C inhibitor resistance was assessed utilizing an in vitro lung cancer model (H358). Briefly, H358 lung cancer cells were treated with increasing concentrations of the hKRAS G12C inhibitor AMG510 for about one month and cytotoxicity induced by AMG510 subsequently evaluated.

Q: Which results are given for C=CC(=O)N1CCN(c2nc(=O)n(-c3c(C)ccnc3C(C)C)c3nc(-c4c(O)cccc4F)c(F)cc23)[C@@H](C)C1 [AMG510, 6-fluoro-7-(2-fluoro-6-hydroxyphenyl)-(1M)-1-[4-methyl-2-(propan-2-yl)pyridin-3-yl]-4-[(2S)-2-methyl-4-(prop-2enoyl)piperazin-1-yl]pyrido[2,3-d]pyrimidin-2 (1H)-one]?
A: cytotoxicity in response to AMG510 treatment [1]: less cytotoxicity; acquired KRAS G12C inhibitor resistance (percent viability) (H358 lung cancer cells): developed KRAS G12C inhibitor (AMG510) resistance
